Results taken from patent US20070073056A1, “4-Substituted Pyrazoline Compounds, their Preparation and Use as Medicaments” (LABORATORIOS DEL DR. ESTEVE, S.A., priority 2005, published 2007).

How the values were obtained:
[1] = biological target: recombinant human cannabinoid 1 receptor (CB1) (Homo sapiens, UniProt P21554); assay: [35S]GTPγS binding assay, antagonism to CB1-receptor (Pharmacological methods, part V); assay type: biochemical; details: compound at 1 μM against agonist WIN 55,212-2; 100% = effect of Rimonabant (1 μM); CHO membranes
Protocol: V. In vitro Determination of Antagonism to CB1-Receptor
Chinese hamster ovary (CHO) cells stably expressing recombinant human cannabinoid 1 receptor (CB1) were cultured in nutrient mixture Ham's F 12 supplemented with 10% heat-inactivated fetal bovine serum, 2 mM L-glutamine, 50 U/ml penicillin, 50 U/ml streptomycin and 0.5 mg/ml geneticin. In order to obtain cells, culture flasks were washed twice with phosphate buffered saline and scraped. Then, cells were collected by centrifugation (200×g, 10 min) and stored dry at −80° C. Cells were homogenized in ice-cold 20 mM HE PES, 10 mM EDTA (pH 7.5) and centrifuged at 40,000×g for 15 min at 4° C. The pellet was resuspended in 20 mM HEPES, 0.1 mM EDTA (pH 7.5) and centrifuged for 15 min at 4° C. The final pellet was resuspended in 20 mM HEPES, 0.1 mM EDTA (pH 7.5), and divided in aliquots and stored at −80° C. until use.
[^35S]GTPγS Binding Assay:
The reaction was performed in 96-well plates. […] The incubation was terminated by rapid filtration through Millipore Multiscreen glass fiber FB, and rinsed two-times with ice-cold assay buffer. Filter plates were dried and 30 μl of scintillation liquid was added. Radioactivity was determined using Wallac Microbeta Trilux. Each experiment was performed at least in duplicate.
The average of basal [35S]GTPγS binding was subtracted from all binding data.
The antagonism of the pyrazoline compounds of general formula I to the CB1-receptor was determined according to the method described in Pharmacological methods, part V (table 2).

CB1-receptor [2] = biological target: CB1-receptor (UniProt P20272); assay: binding of the pyrazoline compounds to CB1-receptors (Pharmacological Methods, Part I); parameters: other: 10^−7 M; other: 10^−8 M; species or system human or rat
Procedure, shortened: (§1)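 Rat cerebellum membranes (male Wistar), 100 μg protein, competed against 1 nM [3H]-CP 55,940 in 50 mM Tris-HCl, 5 mM MgCl2, 1 mM EDTA, 0.5% BSA, pH 7.4; 1 h at 30 °C. Non-specific binding with 10 μM HU-210; filtration and scintillation counting, triplicates, non-linear regression.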

CB1-receptor [3] = biological target: CB1-receptor (UniProt P20272); assay: as above; parameters: IC50; species or system human or rat; details: radioligand [3H]-CP55940, read-out: IC50
Procedure, shortened: as §1

Sequence of recombinant human cannabinoid 1 receptor (CB1) (P21554 whole entry): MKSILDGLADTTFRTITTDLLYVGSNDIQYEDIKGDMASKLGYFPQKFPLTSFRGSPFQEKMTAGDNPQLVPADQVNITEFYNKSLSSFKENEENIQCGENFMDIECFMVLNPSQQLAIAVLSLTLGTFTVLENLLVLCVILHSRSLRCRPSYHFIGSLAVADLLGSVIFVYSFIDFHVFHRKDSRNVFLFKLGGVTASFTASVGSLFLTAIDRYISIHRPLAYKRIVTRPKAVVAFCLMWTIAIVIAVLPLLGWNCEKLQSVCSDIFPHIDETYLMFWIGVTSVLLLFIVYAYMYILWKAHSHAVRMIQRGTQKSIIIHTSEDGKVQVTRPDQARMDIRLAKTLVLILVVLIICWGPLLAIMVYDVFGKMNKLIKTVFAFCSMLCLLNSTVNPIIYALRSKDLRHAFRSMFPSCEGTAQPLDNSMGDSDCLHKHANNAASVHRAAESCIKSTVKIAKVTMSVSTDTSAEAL

| Compound | Antagonism [1] | Inhibition (CB1-receptor [2]; 10^−7 M) | Inhibition (CB1-receptor [2]; 10^−8 M, in %) | IC50 (CB1-receptor [3]) |
| --- | --- | --- | --- | --- |
| C[C@H]1C(C(=O)O)=NN(c2ccc(Cl)cc2Cl)[C@H]1c1ccc(Cl)cc1 (racemic) [Example 19, cis-5-(4-Chloro-phenyl)-1-(2,4-dichloro-phenyl)-4-methyl-4,5-dihydro-1H-pyrazole-3-carboxylic acid] | −18% | −3.6% | −0.7 | – |
| C[C@@H]1C(C(=O)NN2CCCCC2)=NN(c2ccc(Cl)cc2Cl)[C@H]1c1ccccc1 (relative stereo) [Example 376, trans-1-(2,4-dichlorophenyl)-4-methyl-5-phenyl-N-(piperidin-1-yl)-4,5-dihydro-1H-pyrazole-3-carboxamide] | 75% | – | – | 70.8 nM |
| C[C@@H]1C(C(=O)NN2CCCCC2)=NN(c2ccc(Cl)cc2Cl)[C@@H]1c1ccccc1 (relative stereo) [Example 375, cis-1-(2,4-dichlorophenyl)-4-methyl-5-phenyl-N-(piperidin-1-yl)-4,5-dihydro-1H-pyrazole-3-carboxamide] | 58% | – | – | 140 nM |

Results, then the compound that gave them:

| Antagonism [1] | Inhibition (CB1-receptor [2]; 10^−7 M) | Inhibition (CB1-receptor [2]; 10^−8 M, in %) | IC50 (CB1-receptor [3]) | Compound |
| --- | --- | --- | --- | --- |
| 23% | – | – | > 1000 nM | C[C@@H]1C(C(=O)NN2CCCCC2)=NN(c2ccc(Cl)cc2Cl)[C@@H]1c1cccs1.Cl (relative stereo) [Example 430, cis-1-(2,4-dichlorophenyl)-4-methyl-N-(piperidin-1-yl)-5-(thiophen-2-yl)-4,5-dihydro-1H-pyrazole-3-carboxamide hydrochloride] |
| 89% | – | – | 89 nM | CC[C@@H]1C(C(=O)NN2CCCCC2)=NN(c2ccc(Cl)cc2Cl)[C@@H]1c1ccc(Cl)cc1 (relative stereo) [Example 432, cis-5-(4-chlorophenyl)-1-(2,4-dichlorophenyl)-4-ethyl-N-(piperidin-1-yl)-4,5-dihydro-1H-pyrazole-3-carboxamide] |
